Our source for the change in vivo, relative leaf area (% of untreated control) and relative leaf area values is US20150289512A1, “METHOD FOR PROMOTING PLANT GROWTH” (SUMITOMO CHEMICAL COMPANY, LIMITED, priority 2012, published 2015).

Holding throughout (type): in vivo
Experiment [1] has as its system Rice (variety: Nipponbare). Nature of the experiment: Test Example 2: promotion of root growth by hydroponics of rice, 1 ppm. To be noted: Oryza sativa, hydroponic solution containing the test compound at 1 ppm, average of 4 or 5 individuals, read-out: Relative value of length of seminal root (%-untreated control plot). As for the experimental part: (§1) Test for Evaluating Promotion of Root Growth by Hydroponics of Rice
(§2) Rice (variety: Nipponbare)
A DMSO solution, which contained one of the compounds 1, 3, 11, 12, 14, 15, 17, 21, 28, 30, 33, 34, 35, 36, 37, 38, 40, 41, 43, 44, 45, 46, 47, 49, 50, 51, 52, 53, 54, 55, 56, 61, 62, 63, 65, 67, 68, 69, 70, 73, 74, 75, 76, 77, 80, 82, 83, 85 and 86 of the present invention at a concentration of 10,000 ppm, was added to Hoagland hydroponic solution (Hoagland and Arnon, California Agricultural Experiment Station 1950 Circular 347 pp. 34) of ¼-fold concentration at a volume ratio of 1/10,000. In this manner, hydroponic solutions containing one of the compounds 1, 3, 11, 12, 14, 15, 17, 21, 28, 30, 33, 34, 35, 36, 37, 38, 40, 41, 43, 44, 45, 46, 47, 49, 50, 51, 52, 53, 54, 55, 56, 61, 62, 63, 65, 67, 68, 69, 70, 73, 74, 75, 76, 77, 80, 82, 83, 85 and 86 of the present invention at 1 ppm were prepared respectively. As an untreated control plot, a hydroponic solution obtained by adding DMSO to Hoagland hydroponic solution of ¼-fold concentration at a volume ratio of 1/10,000 was used. Rice seeds were soaked in a 1% aqueous sodium hypochlorite solution for 10 minutes, then soaked in a 70% ethanol solution for surface sterilization, and then washed with distilled water. The sterilized seeds were soaked in a hydroponic solution containing the test compound described above at 1 ppm and incubated in a dark place for 3 days at 28° C. to perform treatment for hastening germination.
Thereafter, 30 ml of hydroponic solution containing the test compound at 1 ppm was dispensed in a plastic tube (diameter of 20 mm×height of 113 mm) of which the side was covered with cardboard to block light. A float prepared using a styrene board and vinyl mesh was floated, and the rice seeds that had undergone the treatment for hastening germination were placed on the float on the surface of the hydroponic solution. The seeds were cultivated for 3 days at 26° C., an illuminance of 4,000 lux of the top surface of the tube, a humidity of 50%, and a day length of 16 hours.
The nursery plants of rice obtained after cultivation were measured in terms of the length of seminal root by using WinRHIZO system (manufactured by Regent Instruments Inc). For each test plot, an average of the measured values of the seminal root of 4 or 5 individuals was determined.

Experiment [2] concerns Nicotiana benthamiana. As to the kind of experiment: Test Example 5: growth promotion under low-temperature stress by hydroponics of Nicotiana benthamiana, 1 ppm. The conditions noted are these: 1 ppm in medium, low-temperature stress 7 days at 1.5±1.0° C., green leaf area 3 days later, equation (1). As for the experimental part: (§3) Test for Evaluating Growth Promotion Under Low-Temperature Stress by Hydroponics of Nicotiana benthamiana
A DMSO solution, which contained one of the compounds 2, 4, 5, 6, 11, 12, 17, 20, 21, 28, 30, 34, 36, 37, 51, 52, 53, 55, 56, 58, 59, 60, 64, 65, 66, 68, 69, 70, 74, 77, 82, 83, 84, 86 and 87 of the present invention at a concentration of 1,000 ppm, was prepared. The DMSO solution of the compound of the present invention was added at a volume ratio of 1/1,000 to the Murashige•Scoog medium of a ½-fold concentration (a medium containing 2.3 g of mixed salts for the Murashige•Scoog medium (manufactured by Wako Pure Chemical Industries, Ltd.), 200 mg of Myo-inositol (manufactured by Sigma-Aldrich Co. LLC.), 2 mg of nicotinic acid (manufactured by Wako Pure Chemical Industries, Ltd.), 2 mg of pyridoxine hydrochloride (manufactured by Wako Pure Chemical Industries, Ltd.), 20 mg of thiamine hydrochloride (manufactured by Wako Pure Chemical Industries, Ltd.), 20 g of sucrose (manufactured by Wako Pure Chemical Industries, Ltd.), and 1 g of MES (manufactured by DOJINDO LABORATORIES) per 1 L of water and having pH adjusted to 5.8), thereby preparing a medium containing the compound of the present invention at a concentration of 1 ppm.
(§4) Seeds of Nicotiana benthamiana were seeded in the 5 μL of the medium and cultured overnight at 22° C. Thereafter, 45 μL of the medium containing the compound of the present invention at a concentration of 1 ppm was added thereto, and the seeds are cultured for 7 days at 22° C., an illuminance of 4,000 lux, and a day length of 16 hours, and the nursery plants raised from the Nicotiana benthamiana were treated with the compound. Moreover, instead of the above medium, a test plot, which was obtained by performing the same treatment by using a medium prepared by adding DMSO to the Murashige•Scoog medium of ½-fold concentration at a volume ratio of 1/1,000, was used as a control plot not treated with the compound.
(§5) The nursery plants of the Nicotiana benthamiana treated with the compound were subjected to low-temperature treatment by being cultivated for 7 days at 1.5±1.0° C., an illuminance of 2,000 lux, and a day length of 16 hours.
The nursery plants of the Nicotiana benthamiana having undergone the low-temperature stress treatment were cultured for 3 days at 22° C., an illuminance of 4,000 lux, and a day length of 16 hours. Thereafter, the area of green leaf was quantified by Scanalyzer HTS (manufactured by LemnaTec GmbH). Moreover, the value of the control plot not treated with the compound that had not yet been subjected to the low-temperature stress treatment was measured in the same manner. A value of a relative leaf area was calculated based on the following equation (1), and if the value of a relative leaf area was 5 or greater, the compound was evaluated to have a mitigating effect. As a result of the evaluation, it was confirmed that when the plant was treated with one of the compounds 2, 4, 5, 6, 11, 12, 17, 20, 21, 28, 30, 34, 36, 37, 51, 52, 53, 55, 56, 58, 59, 60, 64, 65, 66, 68, 69, 70, 74, 77, 82, 83, 84, 86 and 87 of the present invention at 1 ppm, the value of a relative leaf area was 5 or greater, compared to the area of green leaf of the control plot not treated with compound. Accordingly, it was confirmed that the treatment using the compound of the present invention brings about a growth promotion effect.
(§6) Relative leaf area=100*(a green area of a plot treated with the compound of the present invention−a green area of a control plot not treated with the compound of the present invention)/(a green area of a control plot not treated with the compound of the present invention that has not yet been subjected to low-temperature stress treatment−a green area of a control plot not treated with the compound of the present invention) Equation (1): […]

Experiment [3] concerns Nicotiana benthamiana. As to the kind of experiment: Test Example 4: growth promotion under low-temperature stress by hydroponics of Nicotiana benthamiana, 10 ppm. To be noted: 10 ppm in medium, low-temperature stress 7 days at 1.5±1.0° C., green leaf area 3 days later, equation (1). As for the experimental part:
as §3
A DMSO solution, which contained one of the compounds 1, 8, 9, 13, 18, 19, 22, 23, 29, 32, 33, 34, 39, 40, 41, 43, 44, 51, 53, 54, 55, 56, 58, 60, 62, 63, 64, 65, 67, 69, 71, 73, 74, 75, 77, 79, 82, 83 and 86 of the present invention at a concentration of 10,000 ppm, was prepared. The DMSO solution of the compound of the present invention was added at a volume ratio of 1/1,000 to the Murashige•Scoog medium of a ½-fold concentration (a medium containing 2.3 g of mixed salts for the Murashige•Scoog medium (manufactured by Wako Pure Chemical Industries, Ltd.), 200 mg of Myo-inositol (manufactured by Sigma-Aldrich Co. LLC.), 2 mg of nicotinic acid (manufactured by Wako Pure Chemical Industries, Ltd.), 2 mg of pyridoxine hydrochloride (manufactured by Wako Pure Chemical Industries, Ltd.), 20 mg of thiamine hydrochloride (manufactured by Wako Pure Chemical Industries, Ltd.), 20 g of sucrose (manufactured by Wako Pure Chemical Industries, Ltd.), and 1 g of MES (manufactured by DOJINDO LABORATORIES) per 1 L of water and having pH adjusted to 5.8), thereby preparing a medium containing the compound of the present invention at a concentration of 10 ppm.
as §4, with “concentration of 10 ppm was” for “concentration of 1 ppm was”, “seeds are cultivated for 7” for “seeds are cultured for 7”
as §5
The nursery plants of the Nicotiana benthamiana having undergone the low-temperature stress treatment were cultivated for 3 days at 22° C., an illuminance of 4,000 lux, and a day length of 16 hours. Thereafter, the area of green leaf was quantified by Scanalyzer HTS (manufactured by LemnaTec GmbH). Moreover, the value of the control plot not treated with the compound that had not yet been subjected to the low-temperature stress treatment was measured in the same manner. A value of a relative leaf area was calculated based on the following equation (1), and if the value of a relative leaf area was 5 or greater, the compound was evaluated to have a mitigating effect. As a result of the evaluation, it was confirmed that when the plant was treated with one of the compounds 1, 8, 9, 13, 18, 19, 22, 23, 29, 32, 33, 34, 39, 40, 41, 43, 44, 51, 53, 54, 55, 56, 58, 60, 62, 63, 64, 65, 67, 69, 71, 73, 74, 75, 77, 79, 82, 83 and 86 of the present invention at 10 ppm, the value of a relative leaf area was 5 or greater, compared to the area of green leaf of the control plot not treated with compound. Accordingly, it was confirmed that the treatment using the compound of the present invention brings about a growth promotion effect.
as §6

Experiment [4] relates to Rice (variety: Nipponbare). Nature of the experiment: Test Example 1: promotion of root growth by hydroponics of rice, 10 ppm. The conditions noted are these: Oryza sativa, hydroponic solution containing the test compound at 10 ppm, average of 4 or 5 individuals, read-out: Relative value of length of seminal root (%-untreated control plot). As for the experimental part: as §1, §2
Rice seeds were soaked in a 1% aqueous sodium hypochlorite solution for 10 minutes, then soaked in a 70% ethanol solution for surface sterilization, and then washed with distilled water. The sterilized seeds were soaked in a hydroponic solution containing the test compound described above at 10 ppm and incubated in a dark place for 3 days at 28° C. to perform treatment for hastening germination.
Thereafter, 30 ml of hydroponic solution containing the test compound at 10 ppm was dispensed in a plastic tube (diameter of 20 mm×height of 113 mm) of which the side was covered with cardboard to block light. A float prepared using a styrene board and vinyl mesh was floated, and the rice seeds that had undergone the treatment for hastening germination were placed on the float on the surface of the hydroponic solution. The seeds were cultivated for 3 days at 26° C., an illuminance of 4,000 lux of the top surface of the tube, a humidity of 50%, and a day length of 16 hours.
The nursery plants of rice obtained after culturing were measured in terms of the length of seminal root by using WinRHIZO system (manufactured by Regent Instruments Inc). For each test plot, an average of the measured values of the seminal root of 4 or 5 individuals was determined.

Some results are limits rather than exact numbers.

`COC(=O)c1nc2cc(C(F)(F)F)ccc2[nH]1` [Compound 21, methyl 5-(trifluoromethyl)benzimidazole-2-carboxylate]: the change in vivo at 1 ppm in experiment [1] is greater than 5%. Besides, the relative leaf area (% of untreated control) at 1 ppm in the experiment on Nicotiana benthamiana [2] is no less than 5%.

With `COC(=O)c1oc2ccccc2c1N(C)C` [Compound 58], the relative leaf area (% of untreated control) at 1 ppm with Nicotiana benthamiana [2] is no less than 5%. In the experiment on Nicotiana benthamiana [3], this compound displayed a relative leaf area at 10 ppm of no less than 5%.

For `COC(=O)c1oc2ccccc2c1NS(C)(=O)=O` [Compound 60], the relative leaf area (% of untreated control) at 1 ppm in the experiment with Nicotiana benthamiana [2] is no less than 5%. Moreover, the change in vivo at 10 ppm in experiment [4] is greater than 5%. In addition, in the experiment on Nicotiana benthamiana [3], the relative leaf area at 10 ppm was no less than 5%.
